Measurements taken from patent US7566739B2, “Substituted N-sulfonylaminophenylethyl-2-phenoxyacetamide compounds as VR1 receptor antagonists” (Pfizer Inc., priority 2005, dated 2009).

Experiments:
[1] = Half-life in human liver microsomes (HLM); type: in vitro ADME; settings: human liver microsomes (HLM, HL101), 1 μM compound, 0.78 mg/mL HLM, pH 7.4, 37° C., NADPH
Description: Test compounds (1 μM) were incubated with 3.3 mM MgCl2 and 0.78 mg/mL HLM (HL101) in 100 mM potassium phosphate buffer (pH 7.4) at 37° C. on the 96-deep well plate. The reaction mixture was split into two groups, a non-P450 and a P450 group. NADPH was only added to the reaction mixture of the P450 group. An aliquot of samples of P450 group was collected at 0, 10, 30, and 60 minute time points, where the 0 minute time point indicated the time when NADPH was added into the reaction mixture of P450 group. An aliquot of samples of non-P450 group was collected at −10 and 65 minute time points. Collected aliquots were extracted with an acetonitrile solution containing an internal standard. The precipitated protein was spun down in a centrifuge (2000 rpm, 15 min). The compound concentration in supernatant was measured by LC/MS/MS system.
The half-life value was obtained by plotting the natural logarithm of the peak area ratio of compounds/internal standard versus time. The slope of the line of best fit through the points yields the rate of metabolism (k). This was converted to a half-life value using following equations: Half-life=ln 2/k Mono-Iodoacetate (MIA)-Induced OA Model

human VR1 = human VR1 (Homo sapiens, UniProt Q8NER1); assay: Human VR1 antagonist assay (Ca2+ imaging, capsaicin stimulation); type: cell-based; settings: human VR1 expressing cells; concentration reducing capsaicin-evoked Ca2+ influx by 50%; capsaicin 300 nM; read-out: hVR1 IC50
Sequence of human VR1 (Q8NER1 whole entry): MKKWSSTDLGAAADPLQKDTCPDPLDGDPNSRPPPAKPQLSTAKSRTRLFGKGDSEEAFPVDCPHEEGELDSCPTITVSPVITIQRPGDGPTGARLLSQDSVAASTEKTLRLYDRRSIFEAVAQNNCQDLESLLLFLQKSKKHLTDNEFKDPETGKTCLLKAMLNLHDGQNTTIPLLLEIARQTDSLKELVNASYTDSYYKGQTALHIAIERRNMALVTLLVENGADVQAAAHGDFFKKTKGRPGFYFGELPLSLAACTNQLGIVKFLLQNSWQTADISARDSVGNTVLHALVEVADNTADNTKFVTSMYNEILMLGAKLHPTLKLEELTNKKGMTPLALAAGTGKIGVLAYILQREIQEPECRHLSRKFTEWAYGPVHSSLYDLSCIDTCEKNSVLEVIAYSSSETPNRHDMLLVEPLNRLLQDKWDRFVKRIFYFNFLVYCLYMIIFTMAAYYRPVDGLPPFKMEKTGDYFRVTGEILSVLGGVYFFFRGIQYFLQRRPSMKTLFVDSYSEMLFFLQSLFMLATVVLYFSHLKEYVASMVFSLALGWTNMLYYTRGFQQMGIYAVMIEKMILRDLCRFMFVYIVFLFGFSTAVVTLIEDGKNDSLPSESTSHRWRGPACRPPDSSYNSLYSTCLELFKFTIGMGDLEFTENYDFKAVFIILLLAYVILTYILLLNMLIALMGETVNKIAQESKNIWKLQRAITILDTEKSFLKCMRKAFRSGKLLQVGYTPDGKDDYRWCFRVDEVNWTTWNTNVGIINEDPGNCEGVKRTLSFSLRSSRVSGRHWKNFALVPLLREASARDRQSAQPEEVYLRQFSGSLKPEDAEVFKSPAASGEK
Excerpt: VR1 antagonistic activity can be determined by the Ca^2+ imaging assay using human VR1 highly expressing cells. The cells that highly express human VR1 receptors are obtainable from several different conventional methods. The one standard method is cloning from human Dorsal Root Ganglion (DRG) or kidney according to the methods such as described in the journal article; Nature, 389, pp 816-824, 1997. Alternatively VR1 receptors highly expressing human keratinocytes are also known and published in the journal article (Biochemical and Biophysical Research Communications, 291, pp 124-129, 2002). […] Such a genetic modification method was described in detail; Nat. Biotechnol., 19, pp 440-445, 2001. The cells that express human VR1 receptors were maintained in culture flask at 37° C. in an environment containing 5% CO2 until use in the assay. The intracellular Ca^2+ imaging assay to determine VR1 antagonistic activities was done according to the following procedures. The culture medium was removed from the flask and fura-2/AM fluorescent calcium indicator was added to the flask at a concentration of 5 μM in the medium. The flask was placed in CO2 incubator and incubated for 1 hour. Then the cells expressing the human VR1 receptors were detached from the flask follow by washing with phosphate buffer saline, PBS(−) and re-suspended in assay buffer. The 80 μl of aliquot of cell suspension (3.75×10^5 cells/ml) was added to the assay plate and the cells were spun down by centrifuge (950 rpm, 20° C., 3 minutes). The capsaicin-induced changes in the intracellular calcium concentration were monitored using FDSS 6000 (Hamamatsu Photonics, Japan), a fluorometric imaging system. The cell suspension in Krebs-Ringer HEPES (KRH) buffer (115 mM NaCl, 5.4 mM KCl, 1 mM MgSO4, 1.8 mM CaCl2, 11 mM D-Glucose, 25 mM HEPES, 0.96 mM Na2HPO4, pH 7.3) was pre-incubated with varying concentrations of the test compounds or KRH buffer (buffer control) for 15 minutes at room temperature under dark conditions. Then the capsaicin solution, which gives 300 nM in assay mixture, was automatically added to the assay plate by the FDSS 6000. The monitoring of the changes in the fluorescence signals (λex=340 nm/380 nm, λem=510-520 nm) was initiated at 1 minute prior to the addition of capsaicin solution or acidic buffer and continued for 5 minute.

SMILES	half-life at 1 μM [1] [min]	IC50 (human VR1) [nM]
Cc1cc([C@@H](C)NC(=O)COc2cc(F)c(C(C)(C)C)c(F)c2)ccc1NS(C)(=O)=O [Example 1, 2-(4-TERT-BUTYL-3,5-DIFLUOROPHENOXY)-N-((1R)-1-{3-METHYL-4-[(METHYLSULFONYL)AMINO]PHENYL}ETHYL)ACETAMIDE]	31	3.13
C[C@@H](NC(=O)COc1cc(F)c(C(C)(C)C)c(F)c1)c1ccc(NS(C)(=O)=O)c(F)c1 [Example 2, 2-(4-TERT-BUTYL-3,5-DIFLUOROPHENOXY)-N-((1R)-1-{3-FLUORO-4-[(METHYLSULFONYL)AMINO]PHENYL}ETHYL)ACETAMIDE]	12	31.3
C[C@@H](NC(=O)COc1cc(F)c(C(C)(C)C)c(F)c1)c1ccc(NS(C)(=O)=O)cc1 [Example 3, 2-(4-TERT-BUTYL-3,5-DIFLUOROPHENOXY)-N-((1R)-1-{4-[(METHYLSULFONYL)AMINO]PHENYL}ETHYL)ACETAMIDE]	48	34.4
C[C@@H](NC(=O)COc1cc(F)c(C(C)(C)C)c(F)c1)c1ccc(NS(C)(=O)=O)c(CO)c1 [Example 4, 2-(4-TERT-BUTYL-3,5-DIFLUOROPHENOXY)-N-((1R)-1-{3-(HYDROXYMETHYL)-4-[(METHYLSULFONYL)AMINO]PHENYL}ETHYL)ACETOAMIDE]	5.8	8.7
Cc1cc([C@@H](C)NC(=O)COc2cc(F)c(C(C)(C)C(F)(F)F)c(F)c2)ccc1NS(C)(=O)=O [Example 5, 2-[3,5-DIFLUORO-4-(2,2,2-TRIFLUORO-1,1-DIMETHYLETHYL)PHENOXY]-N-((1R)-1-{3-METHYL-4-[(METHYLSULFONYL)AMINO]PHENYL}ETHYL)ACETAMIDE]	13	7.55
